# Patent US20060111335A1, “Photoactivated anti-viral and anti-cancer agent” (priority 2002, published 2006)
# Assays:
# [1] = Reversed phase HPLC elution on C8 column as measure of hydrophobicity; assay type: physicochemical
# Experimental: Reversed phase high performance liquid chromatography (RP-HPLC) was carried out on C8 columns. Compounds were tested using 20%, 30% and 45% acetonitrile in 100 mM ammonium acetate at pH 5.4 for elution on a C8 column, with the intention of achieving an elution time of about 15 minutes. It was expected that the more hydrophobic a compound, the higher the acetonitrile content one would need for the eluent.
# [2] = Photodestruction (photoaquation) with visible light >500 nm, HPLC analysis; assay type: physicochemical; settings: 0.1 mM aqueous, 8 hours under argon
# Experimental: Aqueous solutions (3 mL, 0.1 mM) of the Rh complexes were irradiated for 8 hours under argon using a 450 W Hanovia medium pressure mercury lamp filtered through a uranium yellow glass (cut-off<330 nm) and a 1.5 cm 0.5% (w/v) aqueous solution of K2Cr2O7 (0% transmittance≦500 nm). Photodestruction of the metal complexes was followed by HPLC analysis.
# [3] = Dark thermal aquation and thermal base hydrolysis; assay type: physicochemical; settings: 80° C. with 10% NaOH
# Excerpt: A dissociation/addition mechanism is generally accepted as responsible for the substitution chemistry associated with a hexacoordinated Rh(III) ligand field triplet (Weiland et al., Inorg. Chem., 25:4893 (1986)). The dissociation step is due to the promotion of an electron from the t2g orbital to the eg orbital, which leads to significant weakening of the metal ligand bonds. (Hipps et al., Inorg. Chem., 13:1544 (1974)).
# φX-174 plasmid DNA = assay: Photonicking of φX-174 plasmid DNA, gel electrophoresis; assay type: biochemical; settings: for photonicking of φX-174 plasmid DNA: Example IX, dark and upon exposure to light
# Experimental: Photolysis with φX-174 Plasmid DNA. Metal complex solutions (with or without quenchers) were saturated with oxygen or argon prior to irradiation. The solutions were further degassed after being mixed with the plasmid. The final solution concentrations were: DPPZPHEN ([…]), φX-174 plasmid DNA (205 μM in base pairs), superoxide dismutase (25 μg/mL), 2-propanol (0.5 M), mannitol (6.25 mM), histidine (8 mM).
# Experiments were conducted as described in Example X to evaluate the amount photonicking that occurred in the dark and upon exposure to light for 37TMBP, 56TMBP, OCTBP, BISNMe2, TMOBP, TIOBP, TPBP, BISTAP and BISDPPZ.
# CT DNA = assay: Dark interaction of DPPZPHEN with CT DNA, UV-Vis absorption titration at 380 nm; assay type: binding, calf
# Experimental: General. The quantity of DNA was determined by the Burton assay (Burton, Biochem. J., 62:315-322 (1956)), and its rhodium content was quantitated using flame atomic absorption spectroscopy (AA). The equilibrium constant for interaction between DPPZPHEN and CT-DNA in the dark was calculated from UV-Vis absorption titration measurements at 380 nm (Wolfe et al., Biochem., 26:6392-6396 (1987); Schemel et al., Biopolymers, 10:465-480 (1971)). Cell viability was determined using the MTT assay (Denizot et al., J. Immunol. Methods, 89:271-277 (1986)). SINV was purified on sucrose gradients as previously described (Owen et al., J. Virol., 70:2757-2763 (1996)). The titer was generally 7-8 log10 pfu/mL at the beginning of each experiment.
# Interaction of DPPZPHEN with DNA. […] An intrinsic binding constant of […] 3.4×10^5 M^−1 was calculated using the molar extinction coefficient at the λmax (380 nm) at each titration point.
# [4] = system: naked infectious DNA from phages S13 and G4; settings: cited from earlier work
# KB cells = settings: delivered to cells by liposome; cited from earlier work
# bacteriophage φ6 = settings: cited from earlier work
# [5] = system: KB (human nasopharingeal carcinoma) cells; settings: cited from earlier work
# [6] = system: HeLa (human cervical carcinoma) cells; settings: cited from earlier work
# nucleic acid = settings: irradiated with light; cited from earlier work
# cell membrane = assay: Cell uptake / passage through the cell membrane
# Experimental: OCTBP uptake by KB cells. 11 mg of OCTBP was dissolved in 40 mL of PBS buffer. The solution was vortex stirred for 5 minutes to completely dissolve the solid. The solution was sterile filtered through a 0.2μ nylon syringe filter. The concentration of the solution was determined by measuring the UV absorption at 353 nm (ε353nm=1565 M^−1cm^−1).
# Once the cells were 75% confluent media was decanted from the flasks and 8 mL of drug solutions were added to three flasks and 8 mL of PBS buffer solution was added to the control flask. The flasks were incubated at 37° C. for 15, 30 and 45 minutes. Control flask was incubated for 45 minutes. When the flasks were removed, they were washed with 6×10 mL of PBS buffer solution. All the liquid was carefully decanted from the flasks. 1 mL of lysing buffer (1% triton X-100) was added to each of the four flasks. The walls of the flasks were rinsed using disposable pipettes. Once all the contents of the flasks were placed into a 1.5 mL disposable centrifuge tubes (each flask yielded ˜1.2 mL), the tubes were centrifuged at 6000 rpm and at 4° C. for 30 minutes on the Fisher Model 59V high-speed centrifuge. BCA Assay was done to establish the amount of cells in each flask.
# Rh content of each flask was determined using an inductively coupled plasma (ICP) instrument (AtomScan16, Thermo Elemental, Franklin, Mass.). From each centrifuge tube 1 mL was pipetted and 370 μL of concentrated HCl was added to form a 10% solution. The samples were heated in a hot water bath at 70° C. for 30 minutes. The samples were centrifuged again and the supernatant liquid was diluted to 8 mL by adding nano-pure water. The samples were analyzed for Rh content by ICP.
# Sindbis virus = settings: cited from earlier work
# DNA = system: DNA; design: association with DNA in the dark: dose or concentration left out as unconfirmed; settings: cited from earlier work
# Calf thymus DNA = assay: Dark association with DNA, UV-Visible titration (Example XI); assay type: binding; settings: 50 mM pH 7 I=0.15 sodium phosphate buffer (physiological condition)
# Experimental: Preparation of DNA solution. Calf thymus DNA (Sigma) was dissolved in 50 mM, pH 7, I=0.15 sodium phosphate buffer (Physiological condition) and sonicated. The purity of the DNA was checked by monitoring the absorption spectrum and the ratio of the absorbance at 260 to 280 nm. The ratio were within the acceptable purity margin (1.8±0.1). The concentration of the Calf thymus DNA per phosphate was determined spectrophotometrically: ε253=6600 for calf thymus DNA^1. The concentration was 2.13 E-3 M.
# The resulting solution was diluted 4 times with phosphate buffer. […] 0, 50 μL, 150 μL, 200 μL, 300 μL, 350 μL and 500 μL of DNA solutions were added, mixed well with a small disposable needle, and spectra were recorded again. The concentration of the species, the apparent absorbance at 337 nm, and the apparent extinction coefficients at 337 nm were determined from the absorptions spectra and tabulated in Table 1.
# The apparent binding constant, Kapp was determined from the plot of [DNA]/Δεapp versus [DNA], where Δεapp=εf−εapp and Δε=εf−εb^2, where εb and εf correspond to the extinction coefficient of the DNA-bound form of the OCTBP derivatives and the extinction coefficient of the DNA-unbound OCTBP derivatives, respectively. […] Cb=(εfCtotal−Aobserved)/Δε The concentration of the DNA-unbound OCTBP derivatives (Cf) can be determined by Cf=Ctotal−Cb […]
# cells = assay: Phototoxicity, summary statement of Example XII; assay type: cell-based
# [7] = 45% acetonitrile in 100 mM ammonium acetate pH 5.4
smiles,measurement,setting,value
[Cl-].[Cl][Rh+]12([Cl])([N]3C=CC=c4c3c3c(c5nccnc45)=CC=C[N]31)[N]1C=CC=c3c1c1c(c4nccnc34)=CC=C[N]12,elution time,[1]; [7],8 to 10 min
CC1=c2ccc3c4c2[N](C=C1)[Rh+]1([Cl])([Cl])([N]4C=CC=3C)[N]2C=CC(C)=c3ccc4c(c32)[N]1C=CC=4C.[Cl-] [37TMBP],photodestruction,[2],6.1 % loss
same,"thermal hydrolysis, rank order",[3],OCTBP≅37TMBP>BISPHEN
same,photonicking of φX-174 plasmid DNA,φX-174 plasmid DNA,"Only TPBP, BISTAP, BISDPPZ and BISDPPHEN complexes were found to photonick"
"[Cl-].[Cl][Rh+]12([Cl])([N]3C=CC(c4ccccc4)=c4ccc5c(c43)[N]1C=CC=5c1ccccc1)[N]1C=CC(c3ccccc3)=c3ccc4c(c31)[N]2C=CC=4c1ccccc1 [TPBP, cis-dichlorobis(4,7-diphenyl-1,10-phenanthroline) rhodium(III) chloride]",elution time,[1]; [7],around 30 minutes
same,photonicking of φX-174 plasmid DNA,φX-174 plasmid DNA,found to photonick
"[Cl-].[Cl-].[Cl-].[Rh+3].c1cnc2c(c1)ccc1cccnc12.c1cnc2c(c1)ccc1cccnc12 [BISPHEN, cis-dichlorobis(1,10-phenanathroline) rhodium(III) chloride]",interaction with CT DNA in the dark,CT DNA,negligible interaction
same,photodestruction,[2],virtually unaffected
same,phototoxicity to single stranded and double stranded naked infectious DNA,[4],phototoxic
same,elution time,[1]; 20% acetonitrile in 100 mM ammonium acetate pH 5.4,about 15 minutes
same,phototoxicity against KB cells,KB cells,marginal levels of phototoxicity
same,activity against bacteriophage φ6,bacteriophage φ6,did not exhibit any activity
same,uptake by cells,[5],not taken up
same,uptake by cells,[6],not taken up
same,covalent binding to nucleic acid upon irradiation,nucleic acid,covalently binds to nucleic acid
same,ability to pass through the cell membrane,cell membrane,Neither of these compounds is able to pass through a cell membrane
same,"thermal hydrolysis, rank order",[3],OCTBP≅37TMBP>BISPHEN
same,phototoxicity / virucidal activity against Sindbis virus,Sindbis virus,minimal phototoxicity
same,dark association with DNA,DNA; dark,minimal dark association
same,association with DNA in the dark,DNA; very low ionic strength,only a minimal association
same,frank nicks / nicking of φX-174 supercoiled plasmid DNA upon irradiation,"φX-174 plasmid DNA; 311 nm irradiation, Example VIII",does not generate such frank nicks
"COC1=c2ccc3c4c2[N](C=C1)[Rh+]1([Cl])([Cl])([N]4C=CC=3OC)[N]2C=CC(OC)=c3ccc4c(c32)[N]1C=CC=4OC.[Cl-] [TMOBP, cis-dichlorobis(4,7-dimethoxy-1,10-phenanthroline) rhodium(III) chloride]",elution time,[1]; [7],about 15 minutes
same,photonicking of φX-174 plasmid DNA,φX-174 plasmid DNA,"Only TPBP, BISTAP, BISDPPZ and BISDPPHEN complexes were found to photonick"
"[Cl-].[Cl][Rh+]12([Cl])([N]3C=CC=c4c3c3c(c5nc6ccccc6nc45)=CC=C[N]31)[N]1C=CC=c3c1c1c(c4nc5ccccc5nc34)=CC=C[N]12 [BISDPPZ, cis-dichlorobis{dipyrido(3,2-a: 2′,3′-c)phenazine)rhodium (III) chloride]",elution time,[1]; [7],around 30 minutes
same,photonicking of φX-174 plasmid DNA,φX-174 plasmid DNA,found to photonick
"CN(C)C1=c2ccc3c4c2[N](C=C1)[Rh+]1([Cl])([Cl])([N]4C=CC=3N(C)C)[N]2C=CC(N(C)C)=c3ccc4c(c32)[N]1C=CC=4N(C)C.[Cl-] [BISNMe2, cis-dichlorobis(N,N-dimethylamino)-1,10-phenanthroline} rhodium(III) chloride]",apparent (intrinsic) binding constant Kapp,Calf thymus DNA,2.0 E4 M
same,elution time,[1]; [7],about 15 minutes
same,phototoxicity,cells,are phototoxic
same,ability to pass through the cell membrane,cell membrane,able to pass through the cell membrane
same,photonicking of φX-174 plasmid DNA,φX-174 plasmid DNA,"Only TPBP, BISTAP, BISDPPZ and BISDPPHEN complexes were found to photonick"
"CC(C)OC1=c2ccc3c4c2[N](C=C1)[Rh+]1([Cl])([Cl])([N]4C=CC=3OC(C)C)[N]2C=CC(OC(C)C)=c3ccc4c(c32)[N]1C=CC=4OC(C)C.[Cl-] [TIOBP, cis-dichlorobis(3,7-diisopropoxy-1,10 phenanthroline) rhodium(III) chloride]",elution time,[1]; [7],about 15 minutes
same,photonicking of φX-174 plasmid DNA,φX-174 plasmid DNA,"Only TPBP, BISTAP, BISDPPZ and BISDPPHEN complexes were found to photonick"
"Cc1c(C)c2c3c4c1=CC=C[N]4[Rh+]1([Cl])([Cl])([N]3C=CC=2)[N]2C=CC=c3c(C)c(C)c4c(c32)[N]1C=CC=4.[Cl-] [56TMBP, cis-dichlorobis(5,6-dimethyl-1,10-phenanthroline) rhodium(III) chloride]",photonicking of φX-174 plasmid DNA,φX-174 plasmid DNA,"Only TPBP, BISTAP, BISDPPZ and BISDPPHEN complexes were found to photonick"
